Laboratory results from article PMC2651670 (Biochemistry, 2009).

Experiments:
[1] = biological target: subcomplex Iλ (Bos taurus, UniProt P25708); test: NADH:Q1 oxidoreduction; type: biochemical; details: 100 μM NADH, 0.4 mg/mL asolectin, with or without 2.3 μM rotenone, pH 7.55, 32 °C; flavin site
[2] = biological target: complex I (NADH:ubiquinone oxidoreductase), hydrophobic (physiological) Q-site (Bos taurus, UniProt P03887+P17694+P42026); test: NADH:DQ oxidoreduction, NADH absorbance; type: biochemical
Sequence of complex I (NADH:ubiquinone oxidoreductase), hydrophobic (physiological) Q-site (P03887 whole entry): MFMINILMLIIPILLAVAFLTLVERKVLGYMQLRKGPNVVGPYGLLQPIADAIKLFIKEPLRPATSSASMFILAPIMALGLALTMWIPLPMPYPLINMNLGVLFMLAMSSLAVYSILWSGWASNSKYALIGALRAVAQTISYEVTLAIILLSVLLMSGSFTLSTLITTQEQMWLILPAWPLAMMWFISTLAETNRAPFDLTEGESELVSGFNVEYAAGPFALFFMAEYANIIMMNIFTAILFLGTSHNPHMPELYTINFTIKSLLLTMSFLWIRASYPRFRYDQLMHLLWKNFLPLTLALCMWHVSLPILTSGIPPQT
Sequence of complex I (NADH:ubiquinone oxidoreductase), hydrophobic (physiological) Q-site (P17694 34-463): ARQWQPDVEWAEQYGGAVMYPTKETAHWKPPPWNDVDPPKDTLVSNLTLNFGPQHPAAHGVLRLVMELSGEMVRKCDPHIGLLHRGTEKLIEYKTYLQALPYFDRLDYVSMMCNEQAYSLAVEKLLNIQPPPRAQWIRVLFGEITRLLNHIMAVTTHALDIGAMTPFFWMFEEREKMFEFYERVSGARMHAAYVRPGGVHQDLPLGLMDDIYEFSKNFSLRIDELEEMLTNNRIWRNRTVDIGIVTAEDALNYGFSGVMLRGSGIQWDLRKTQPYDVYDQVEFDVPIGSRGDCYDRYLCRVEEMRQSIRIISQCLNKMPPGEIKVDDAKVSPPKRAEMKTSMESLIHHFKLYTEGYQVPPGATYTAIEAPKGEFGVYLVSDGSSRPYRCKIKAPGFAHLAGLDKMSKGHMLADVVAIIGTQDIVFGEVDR
Sequence of complex I (NADH:ubiquinone oxidoreductase), hydrophobic (physiological) Q-site (P42026 38-216): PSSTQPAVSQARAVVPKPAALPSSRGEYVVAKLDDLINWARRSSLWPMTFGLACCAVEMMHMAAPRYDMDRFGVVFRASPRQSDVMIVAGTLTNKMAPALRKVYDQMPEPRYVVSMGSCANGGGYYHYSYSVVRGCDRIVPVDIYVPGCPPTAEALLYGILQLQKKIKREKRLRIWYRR

Sequence of subcomplex Iλ (P04394 33-249): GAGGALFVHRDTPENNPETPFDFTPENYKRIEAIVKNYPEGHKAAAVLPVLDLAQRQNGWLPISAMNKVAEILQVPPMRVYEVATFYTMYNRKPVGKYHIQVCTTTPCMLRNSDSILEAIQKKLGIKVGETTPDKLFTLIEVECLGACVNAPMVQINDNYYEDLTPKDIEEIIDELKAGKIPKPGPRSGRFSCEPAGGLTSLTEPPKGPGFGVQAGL
Sequence of subcomplex Iλ (P25708 21-464): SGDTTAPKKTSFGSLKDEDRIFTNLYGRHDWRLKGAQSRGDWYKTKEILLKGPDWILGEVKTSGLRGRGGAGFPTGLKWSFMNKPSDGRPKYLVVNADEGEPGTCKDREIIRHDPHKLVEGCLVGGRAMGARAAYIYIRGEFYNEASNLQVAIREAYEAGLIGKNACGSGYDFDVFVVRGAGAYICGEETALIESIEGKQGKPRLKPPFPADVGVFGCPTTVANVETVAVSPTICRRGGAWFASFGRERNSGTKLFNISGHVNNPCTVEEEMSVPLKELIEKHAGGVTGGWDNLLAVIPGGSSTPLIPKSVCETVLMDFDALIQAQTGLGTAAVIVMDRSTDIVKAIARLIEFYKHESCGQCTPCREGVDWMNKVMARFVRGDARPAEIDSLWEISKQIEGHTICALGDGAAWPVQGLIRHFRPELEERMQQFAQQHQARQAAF
Sequence of subcomplex Iλ (P15690 24-727, further chain): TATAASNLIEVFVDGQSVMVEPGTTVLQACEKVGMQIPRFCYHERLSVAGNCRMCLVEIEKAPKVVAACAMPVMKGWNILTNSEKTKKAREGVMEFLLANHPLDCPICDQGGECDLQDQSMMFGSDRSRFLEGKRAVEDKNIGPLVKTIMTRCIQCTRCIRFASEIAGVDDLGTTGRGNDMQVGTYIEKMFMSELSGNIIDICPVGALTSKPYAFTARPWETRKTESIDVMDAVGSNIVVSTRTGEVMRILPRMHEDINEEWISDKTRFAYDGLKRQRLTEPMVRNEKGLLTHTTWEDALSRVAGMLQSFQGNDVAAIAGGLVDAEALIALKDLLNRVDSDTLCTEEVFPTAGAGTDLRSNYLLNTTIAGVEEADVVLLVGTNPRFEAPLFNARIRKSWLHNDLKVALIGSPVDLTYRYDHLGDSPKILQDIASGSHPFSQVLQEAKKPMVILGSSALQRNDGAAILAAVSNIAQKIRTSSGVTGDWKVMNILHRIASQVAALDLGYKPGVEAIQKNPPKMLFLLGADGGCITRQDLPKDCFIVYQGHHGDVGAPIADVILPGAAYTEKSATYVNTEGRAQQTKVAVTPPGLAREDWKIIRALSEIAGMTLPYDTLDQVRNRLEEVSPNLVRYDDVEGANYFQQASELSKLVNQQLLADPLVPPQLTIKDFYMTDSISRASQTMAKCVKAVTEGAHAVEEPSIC

How did the “NADH:Q1 oxidoreduction” value [1] turn out when `COC1=C(OC)C(=O)C(CC=C(C)C)=C(C)C1=O` [Q1] was run?
The value was “Q1 reduction by subcomplex Iλ is independent of the presence of rotenone”.

For `C/C=C(\C)[C@H](O)[C@H](C)/C=C(C)/C=C/C/C(C)=C/Cc1nc(OC)c(OC)c(O)c1C` [piericidin A], which inhibition at 1 µM ([2]; read-out: % inhibition at 1 μM) is on record?
The inhibition at 1 µM was ~95%.

For `C=C(C)[C@H]1Cc2c(ccc3c2O[C@@H]2COc4cc(OC)c(OC)cc4[C@@H]2C3=O)O1` [rotenone], which inhibition at 2.3 µM ([2]; read-out: % inhibition at 2.3 μM) is on record?
The inhibition at 2.3 µM was ~95%.
